Experimental data published in patent publication US20100267561A1, “HERBICIDAL PYRIDAZINONE DERIVATIVES” (priority 2007, published 2010).

Key:
Type in all cases: in vivo
[1] = test system: Italian ryegrass (Lolium multiflorum); assay: Test B pre-/postemergence plant response; conditions: for Ryegrass, Italian plant response rating: 8 g ai/ha
Outline: (§1)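 Visual scoring from 0 (no effect) to 100 (complete control) against untreated controls was done 13 to 15 days after greenhouse treatment. Chemicals were formulated in a surfactant-containing non-phytotoxic solvent and applied to soil preemergence or to 1- to 4-leaf (2-18 cm) plants postemergence.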

[2] = test system: bermudagrass (Cynodon dactylon); assay: Test B pre-/postemergence plant response; conditions: for Bermudagrass plant response rating: 8 g ai/ha
Outline: as §1

[3] = test system: common (oilseed) sunflower (Helianthus annuus); assay: Test B pre-/postemergence plant response; conditions: Preemergence
Outline: as §1

[4] = test system: downy bromegrass (Bromus tectorum); assay: Test B pre-/postemergence plant response; conditions: for Bromegrass, Downy plant response rating: 8 g ai/ha
Outline: as §1

[5] = test system: giant foxtail (Setaria faberii); assay: Test B pre-/postemergence plant response; conditions: for Foxtail, Giant plant response rating: 8 g ai/ha
Outline: as §1

[6] = test system: lambsquarters (Chenopodium album); assay: Test B pre-/postemergence plant response; conditions: for Lambsquarters plant response rating: 8 g ai/ha
Outline: as §1

[7] = test system: morningglory (Ipomoea coccinea); assay: Test B pre-/postemergence plant response; conditions: for Morningglory plant response rating: 8 g ai/ha
Outline: as §1

[8] = test system: pigweed (Amaranthus retroflexus); assay: Test B pre-/postemergence plant response; conditions: for Pigweed plant response rating: 8 g ai/ha
Outline: as §1

[9] = test system: soybean (Glycine max); assay: Test B pre-/postemergence plant response; conditions: for Soybean plant response rating: 8 g ai/ha
Outline: as §1

[10] = test system: surinam grass (Brachiaria decumbens); assay: Test B pre-/postemergence plant response; conditions: for Surinam Grass plant response rating: 8 g ai/ha
Outline: as §1

[11] = test system: wheat (Triticum aestivum); assay: Test B pre-/postemergence plant response; conditions: for Wheat plant response rating: 8 g ai/ha
Outline: as §1

[12] = test system: canarygrass (Phalaris minor); assay: Test B postemergence plant response; conditions: for Plant response rating, Canarygrass: Postemergence
Outline: (§2)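 Visual injury score from 0 (none) to 100 (complete control) versus controls, taken 13 to 15 days after treatment in the greenhouse; chemicals applied postemergence, as formulated, to plants of 1- to 4-leaf stage (2 to 18 cm tall); dash denotes no test result.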

[13] = test system: chickweed (Stellaria media); assay: Test B postemergence plant response; conditions: for Plant response rating, Chickweed: Postemergence
Outline: as §2

[14] = test system: windgrass (Apera spica-venti); assay: Test B postemergence plant response; conditions: for Plant response rating, Windgrass: Postemergence
Outline: as §2

[15] = test system: winter barley (Hordeum vulgare); assay: Test B postemergence plant response; conditions: for Plant response rating, Barley: Postemergence, scale 0 to 100, 0 no effect, 100 complete control
Outline: as §2

[16] = Postemergence, 16 g ai/ha, scale 0 to 100
[17] = Postemergence, 31 g ai/ha, scale 0 to 100, 0 no effect, 100 complete control
[18] = Postemergence, 62 g ai/ha, scale 0 to 100, 0 no effect, 100 complete control
[19] = Preemergence, 16 g ai/ha, scale 0 to 100 (0 no effect, 100 complete control)
[20] = Preemergence, 31 g ai/ha, 0 to 100 scale, 0 no effect, 100 complete control
[21] = Preemergence, 62 g ai/ha, scale 0 to 100
[22] = 8 g ai/ha, postemergence, 0-100 scale
[23] = 31 g ai/ha, scale 0 to 100, 0 no effect, 100 complete control
[24] = 62 g ai/ha, scale 0 to 100, 0 no effect, 100 complete control

In the case of COC(=O)Oc1cnn(C)c(=O)c1-n1nc(-c2ccc(Cl)cc2)cc1C [Compound 33], the “Ryegrass, Italian plant response rating” value ([1]; postemergence, 0-100 scale) is reported as 75, the “Plant response rating, Ryegrass, Italian” value [1, 16] is reported as 80 and the “Plant response rating, Ryegrass, Italian” value [1, 17] is reported as 100. For the same molecule, the “Plant response rating, Ryegrass, Italian” value [1, 18] was 100, the “Plant response rating, Ryegrass, Italian” value [1, 19] was 95 and the “Plant response rating, Ryegrass, Italian” value [1, 20] was 95. For the same molecule, the “Plant response rating, Ryegrass, Italian” value [1, 21] was 98, the “Ryegrass, Italian plant response rating” value ([1]; Preemergence, scale 0 to 100) was 85 and the “Bermudagrass plant response rating” value ([2]; postemergence, 0-100 scale) was 70. The “Plant response rating, Bermudagrass” value [2, 16] was 100, the “Plant response rating, Bermudagrass” value [2, 17] was 100 and the “Plant response rating, Bermudagrass” value [2, 18] was 100. The “Bermudagrass plant response rating” value ([2]; Preemergence, scale 0 to 100 (0 no effect, 100 complete control)) was 80, the “Plant response rating, Bermudagrass” value [2, 19] was 98 and the “Plant response rating, Bermudagrass” value [2, 20] was 100. The “Plant response rating, Bermudagrass” value [2, 21] was 100, the “Plant response rating, Sunflower” value ([3]; 16 g ai/ha, scale 0 to 100 (0 no effect, 100 complete control)) was 0 and the “Plant response rating, Sunflower” value ([3]; 31 g ai/ha, 0 to 100 scale, 0 no effect, 100 complete control) was 0. For the same molecule, the “Plant response rating, Sunflower” value ([3]; 62 g ai/ha, scale 0 to 100) was 0, the “Sunflower plant response rating” value ([3]; 8 g ai/ha, scale 0 to 100) was 0 and the “Bromegrass, Downy plant response rating” value ([4]; postemergence, 0-100 scale) was 5. For the same molecule, the “Plant response rating, Bromegrass, Downy” value [4, 16] was 50, the “Plant response rating, Bromegrass, Downy” value [4, 17] was 70 and the “Plant response rating, Bromegrass, Downy” value [4, 18] was 80. The “Plant response rating, Bromegrass, Downy” value [4, 19] was 0, the “Plant response rating, Bromegrass, Downy” value [4, 20] was 80 and the “Plant response rating, Bromegrass, Downy” value [4, 21] was 100. The “Bromegrass, Downy plant response rating” value ([4]; Preemergence, scale 0 to 100) was 0, the “Foxtail, Giant plant response rating” value ([5]; postemergence, 0-100 scale) was 100 and the “Plant response rating, Foxtail, Giant” value [5, 16] was 100. For the same molecule, the “Plant response rating, Foxtail, Giant” value [5, 17] was 100, the “Plant response rating, Foxtail, Giant” value [5, 18] was 100 and the “Plant response rating, Foxtail, Giant” value [5, 19] was 100. The “Plant response rating, Foxtail, Giant” value [5, 20] was 100, the “Plant response rating, Foxtail, Giant” value [5, 21] was 100 and the “Foxtail, Giant plant response rating” value ([5]; Preemergence, scale 0 to 100) was 100. The “Lambsquarters plant response rating” value ([6]; postemergence, 0-100 scale) was 0, the “Plant response rating, Lambsquarters” value [6, 16] was 0 and the “Plant response rating, Lambsquarters” value [6, 17] was 0. The “Plant response rating, Lambsquarters” value [6, 18] was 0, the “Plant response rating, Lambsquarters” value [6, 19] was 0 and the “Plant response rating, Lambsquarters” value [6, 20] was 0. The “Plant response rating, Lambsquarters” value [6, 21] was 0, the “Lambsquarters plant response rating” value ([6]; Preemergence, scale 0 to 100) was 0 and the “Morningglory plant response rating” value ([7]; postemergence, 0-100 scale) was 0. The “Plant response rating, Morningglory” value [7, 16] was 0, the “Plant response rating, Morningglory” value [7, 17] was 0 and the “Plant response rating, Morningglory” value [7, 18] was 0. For the same molecule, the “Plant response rating, Morningglory” value [7, 19] was 0, the “Plant response rating, Morningglory” value [7, 20] was 0 and the “Plant response rating, Morningglory” value [7, 21] was 0. The “Morningglory plant response rating” value ([7]; Preemergence, scale 0 to 100) was 0, the “Pigweed plant response rating” value ([8]; postemergence, 0-100 scale) was 0 and the “Plant response rating, Pigweed” value [8, 16] was 0. The “Plant response rating, Pigweed” value [8, 17] was 0, the “Plant response rating, Pigweed” value [8, 18] was 0 and the “Plant response rating, Pigweed” value [8, 19] was 0. The “Plant response rating, Pigweed” value [8, 20] was 0, the “Plant response rating, Pigweed” value [8, 21] was 0 and the “Pigweed plant response rating” value ([8]; Preemergence, scale 0 to 100) was 0. For the same molecule, the “Soybean plant response rating” value ([9]; postemergence, 0-100 scale) was 0, the “Plant response rating, Soybean” value [9, 16] was 0 and the “Plant response rating, Soybean” value [9, 18] was 0. The “Plant response rating, Soybean” value [9, 19] was 0, the “Plant response rating, Soybean” value [9, 20] was 0 and the “Plant response rating, Soybean” value [9, 21] was 0. For the same molecule, the “Soybean plant response rating” value ([9]; Preemergence, scale 0 to 100) was 0, the “Surinam Grass plant response rating” value ([10]; postemergence, 0-100 scale) was 85 and the “Plant response rating, Surinam Grass” value [10, 16] was 100. For the same molecule, the “Plant response rating, Surinam Grass” value [10, 18] was 100, the “Plant response rating, Surinam Grass” value [10, 19] was 90 and the “Plant response rating, Surinam Grass” value [10, 20] was 98. For the same molecule, the “Plant response rating, Surinam Grass” value [10, 21] was 100, the “Surinam Grass plant response rating” value ([10]; Preemergence, scale 0 to 100) was 75 and the “Wheat plant response rating” value ([11]; postemergence, 0-100 scale) was 20. For the same molecule, the “Plant response rating, Wheat” value [11, 16] was 70, the “Plant response rating, Wheat” value [11, 18] was 98 and the “Plant response rating, Wheat” value [11, 19] was 0. For the same molecule, the “Plant response rating, Wheat” value [11, 20] was 50, the “Plant response rating, Wheat” value [11, 21] was 80 and the “Wheat plant response rating” value ([11]; Preemergence, scale 0 to 100) was 0. For the same molecule, the “Canarygrass plant response rating” value [12, 22] was 0, the “Plant response rating, Canarygrass” value ([12]; 16 g ai/ha, scale 0 to 100) was 35 and the “Plant response rating, Canarygrass” value [12, 23] was 80. For the same molecule, the “Chickweed plant response rating” value [13, 22] was 0, the “Plant response rating, Chickweed” value ([13]; 16 g ai/ha, scale 0 to 100) was 0 and the “Plant response rating, Chickweed” value [13, 23] was 0. The “Plant response rating, Chickweed” value [13, 24] was 0, the “Windgrass plant response rating” value [14, 22] was 10 and the “Plant response rating, Windgrass” value ([14]; 16 g ai/ha, scale 0 to 100) was 50. For the same molecule, the “Plant response rating, Windgrass” value [14, 24] was 70, the “Barley plant response rating” value [15, 22] was 0 and the “Plant response rating, Barley” value ([15]; 16 g ai/ha) was 25. For the same molecule, the “Plant response rating, Barley” value ([15]; 31 g ai/ha) was 30 and the “Plant response rating, Barley” value ([15]; 62 g ai/ha) was 30.
